# Measurements reported in patent US20230270113A1, “FUNGICIDAL MIXTURES” (Adama Makhteshim Ltd., priority 2020, published 2023).
# Like-named read-outs stand apart in the source and are kept apart here.
# What was measured:
# Assay type in all cases: in vivo
# [1] = tested on: Venturia inaequalis; assay: Example A: greenhouse control of apple scab, phthalimides with DMI and/or fluopyram; settings: for % control observed on leaves 26 DAYS after the application / % control observed on leaves 19 DAYS after the application: captan or folpet 1200, difenoconazole 75, tebuconazole 150, fluopyram 150 gAI/ha; for Var % (19/26 DAYS): change of % control from 19 to 26 days
# [2] = tested on: Venturia inaequalis; assay: Example 1b: greenhouse control of apple scab, reduced rates of phthalimides and difenoconazole; settings: for % control observed on leaves 26 DAYS after the application / % control observed on leaves 19 DAYS after the application: captan or folpet 900, difenoconazole 35, tebuconazole 150, fluopyram 150 gAI/ha; for Var % (19/26 DAYS): change of % control from 19 to 26 days
# [3] = tested on: Alternaria solani; assay: Example 4: greenhouse control of Alternaria solani in tomato seedlings, phthalimides with DMI and/or fluxapyroxad; settings: Table 9; captan or folpet 1200, difenoconazole 75, tebuconazole 150, fluxapyroxad 75 gAI/ha; one spray 1 day before inoculation
# [4] = tested on: Erysiphe necator; assay: Example 9: greenhouse control of Erysiphe necator in grape plants
# Procedure: • An experiment was conducted in controlled conditions under a greenhouse to evaluate the fungicidal activity of the mixture comprising (1) phthalimide fungicide (folpet, captan) and (2) demethylation inhibitor fungicide (difenoconazole) or a quinone outside inhibitors (azoxystrobin, pyraclostrobin), toward Erysiphe necator in grape plants, variety Barbera. In addition, the activity of phthalimide with two fungicides (A); demethylation inhibitor fungicide (difenoconazole) or a quinone outside inhibitors (azoxystrobin, pyraclostrobin and dehydrogenase inhibitor fungicide (fluxapyroxad) was also tested. • The experiment was conducted by applying compositions of fluxapyroxad, difenoconazole (Score® 10 WG), azoxystrobin (Ortiva®), pyraclostrobin (Cabrio® EC) and folpet (Folpan 80 WDG®) alone or together. The compositions were diluted with water. Water amount used was equivalent to 800 L/ha. Application was performed in an automatic spraying cabin equipped with 2 flatfan AI11003VS nozzles. • Treatments: • Folpet 1000 gr (A.I.)/ha • Fluxapyroxad 45 gr (A.I.)/ha • Difenoconazole 37.5 gr (A.I.)/ha • Difenoconazole 37.5 gr (A.I.)/ha+folpet 1000 gr (A.I.)/ha • Azoxystrobin 90 gr (A.I.)/ha • Azoxystrobin 90 gr (A.I.)/ha+folpet 1000 gr (A.I.)/ha • Pyraclostrobin 75 gr (A.I.)/ha • Pyraclostrobin 75 gr (A.I.)/ha+folpet 1000 gr (A.I.)/ha • Fluxapyroxad 45 gr (A.I.)/ha+Difenoconazole 37.5 gr (A.I.)/ha • Fluxapyroxad 45 gr (A.I.)/ha+Difenoconazole 37.5 gr (A.I.)/ha+folpet 1000 gr (A.I.)/ha • Azoxystrobin 90 gr (A.I.)/ha+Fluxapyroxad 45 gr (A.I.)/ha • Azoxystrobin 90 gr (A.I.)/ha+Fluxapyroxad 45 gr (A.I.)/ha+folpet 1000 gr (A.I.)/ha • Azoxystrobin 90 gr (A.I.)/ha+Difenoconazole 37.5 gr (A.I.)/ha • Azoxystrobin 90 gr (A.I.)/ha+Difenoconazole 37.5 gr (A.I.)/ha+folpet 1000 gr (A.I.)/ha • Pyraclostrobin 75 gr (A.I.)/ha+Fluxapyroxad 45 gr (A.I.)/ha • Pyraclostrobin 75 gr (A.I.)/ha+Fluxapyroxad 45 gr (A.I.)/ha+folpet 1000 gr (A.I.)/ha • Pyraclostrobin 75 gr (A.I.)/ha+Difenoconazole 37.5 gr (A.I.)/ha • Pyraclostrobin 75 gr (A.I.)/ha+Difenoconazole 37.5 gr (A.I.)/ha+folpet 1000 gr (A.I.)/ha • To test for fungicidal control of Erysiphe necator, the grape plants were sprayed with each of the above treatments. Each of the above treatments was applied from 4 to 10 times according to the disease development, applications occurring 7-14 days after the previous treatment. The treatments were composed of 4 replicates. • Evaluations were performed for the whole duration of the experiment. At each time the incidence and the severity of Erysiphe necator on plants parts was determined.
# [5] = tested on: Sphaerotheca fuliginea; assay: Example 10: greenhouse control of Sphaerotheca fuliginea on melon plants
# [6] = tested on: Phytophthora infestans; settings: tomato
# [7] = tested on: Alternaria solani; assay: Example 6b: greenhouse control of Alternaria solani in potato plants
# [8] = tested on: Plasmopara viticola; assay: Example 7: greenhouse control of Plasmopara viticola in grape plants, folpet with partners
# [9] = tested on: Botrytis cinerea; assay: Example 11: greenhouse control of Botrytis cinerea in strawberry
# [10] = tested on: Zymoseptoria tritici Tri-R6 strain; settings: for effect of FOLPET on the efficacy of the systemic product, treated and untreated areas / effect of FOLPET on the efficacy of the systemic product, treated area / effect of FOLPET on the efficacy of the systemic product, untreated area: with FOLPET vs use alone; for effect of FOLPET on the efficacy of the systemic product, treated and untreated areas: 21 and 28 days
# [11] = tested on: Alternaria solani; assay: Example 5: greenhouse control of Alternaria solani in tomato, phthalimides with azoxystrobin and/or fluxapyroxad
# [12] = tested on: Venturia inaequalis; assay: Example 2: greenhouse control of apple scab, phthalimides with cyprodinil and/or fluxapyroxad; settings: Table 6; captan or folpet 1200, cyprodinil 300, fluxapyroxad 90 gAI/ha; one spray 1 day before inoculation
# [13] = Table 2, one spray 1 day before inoculation, severity based
# [14] = Table 4, one spray 1 day before inoculation
structure (smiles),measurement,setting,value
"CC1COC(Cn2cncn2)(c2ccc(Oc3ccc(Cl)cc3)cc2Cl)O1 (stereo not drawn) [DIFENOCONAZOLE, difenoconazole]",% control observed on leaves 26 DAYS after the application,[1]; [13],71.8%
same,% control observed on leaves 19 DAYS after the application,[1]; Table 3,77.9%
same,% control observed on leaves 26 DAYS after the application,[1]; Table 3,71.8%
same,Var % (19/26 DAYS),[1]; Table 3,−7.8%
same,% control observed on leaves 26 DAYS after the application,[2]; [14],73.1%
same,% control observed on leaves 19 DAYS after the application,[2]; Table 5,79.5%
same,% control observed on leaves 26 DAYS after the application,[2]; Table 5,73.1%
same,Var % (19/26 DAYS),[2]; Table 5,−8.1%
same,% control observed on leaves 20 DAYS after the application,[3],60.6%
same,% control observed on leaves 21 DAYS after the application,[4]; rate 37.5 gr (A.I.)/ha,68.9%
same,% control observed on leaves 21 DAYS after the application,[5]; rate 50 gr (A.I.)/ha,49.4%
CCCCCCCCc1c(CC)nc2ncnn2c1N [AMETOCRADIN],% control observed on leaves 14 DAYS after the application,[6]; rate 240 gr (A.I.)/ha,68.0%
same,% control observed on leaves 21 DAYS after the application,[7]; rate 240 gr (A.I.)/ha,62.0%
same,% control observed on leaves 21 DAYS after the application,[8]; rate 225.0 gr (A.I.)/ha,78.8%
Cc1cc(OC(C)C)ccc1C(=O)C(C)(C)NC(=O)c1sccc1C [ISOFETAMID],% control observed on leaves 21 DAYS after the application,[9]; rate 400 gr (A.I.)/ha,74.0%
"CC(C)CC(C)c1sccc1NC(=O)c1cn(C)nc1C(F)(F)F (stereo not drawn) [PENTHIOPYRAD, penthiopyrad]","effect of FOLPET on the efficacy of the systemic product, treated and untreated areas",[10],a significant effect was observed only for the 28-day timing
O=[N+]([O-])c1cc(C(F)(F)F)c(Cl)c([N+](=O)[O-])c1Nc1ncc(C(F)(F)F)cc1Cl [FLUAZINAM],% control observed on leaves 21 DAYS after the application,[9]; rate 500 gr (A.I.)/ha,68.5%
N#Cc1c[nH]cc1-c1cccc2c1OC(F)(F)O2 [FLUDIOXONIL],% control observed on leaves 21 DAYS after the application,[9]; rate 150 gr (A.I.)/ha,40.8%
CC1(C(=O)Nc2ccc(O)c(Cl)c2Cl)CCCCC1 [FENHEXAMID],% control observed on leaves 21 DAYS after the application,[9]; rate 500 gr (A.I.)/ha,74.2%
Cc1cc(C(F)(F)F)nn1CC(=O)N1CCC(c2nc(C3=NOC(c4c(F)cccc4F)C3)cs2)CC1 (stereo not drawn) [OXATHIAPIPROLIN],% control observed on leaves 14 DAYS after the application,[6]; rate 15 gr (A.I.)/ha,78.6%
same,% control observed on leaves 21 DAYS after the application,[7]; rate 15 gr (A.I.)/ha,63.6%
same,% control observed on leaves 21 DAYS after the application,[8]; rate 22.5 gr (A.I.)/ha,86.7%
"CCCN(CCOc1c(Cl)cc(Cl)cc1Cl)C(=O)n1ccnc1 [PROCHLORAZ, prochloraz]","effect of FOLPET on the efficacy of the systemic product, treated area",[10],numerically appreciated but not significantly improved
same,"effect of FOLPET on the efficacy of the systemic product, untreated area",[10],significant positive effect
"CO/C=C(/C(=O)OC)c1ccccc1Oc1cc(Oc2ccccc2C#N)ncn1 [AZOXYSTROBIN, azoxystrobin]",% control observed on leaves 20 DAYS after the application,"[11]; Table 10, captan or folpet 1200, azoxystrobin 120, fluxapyroxad 75 gAI/ha, one spray 1 day before inoculation",51.4%
same,% control observed on leaves 14 DAYS after the application,"[11]; rate 120 gAI/ha, tomato",71%
same,% control observed on leaves 20 DAYS after the application,"[11]; rate 120 gAI/ha, tomato",51.4%
same,Var % (14/20 DAYS),"[11]; rate 120 gAI/ha, tomato",−27.6%
same,% control observed on leaves 21 DAYS after the application,[4]; rate 90 gr (A.I.)/ha,65.9%
same,% control observed on leaves 21 DAYS after the application,[5]; rate 250 gr (A.I.)/ha,51.0%
O=C(NCc1ncc(C(F)(F)F)cc1Cl)c1c(Cl)cccc1Cl [FLUOPICOLIDE],% control observed on leaves 21 DAYS after the application,[8]; rate 75.0 gr (A.I.)/ha,74.5%
"Cn1cc(C(=O)Nc2ccc(F)cc2-c2ccc(Cl)c(Cl)c2)c(C(F)F)n1 [BIXAFEN, bixafen]","effect of FOLPET on the efficacy of the systemic product, treated and untreated areas",[10],greatly improved efficacy
same,protection of the untreated area by the formulation alone,[10]; without FOLPET,incapable of protecting the areas not treated
"CC(C)(C)C(O)(CCc1ccc(Cl)cc1)Cn1cncn1 (stereo not drawn) [TEBUCONAZOLE, tebuconazole]",% control observed on leaves 26 DAYS after the application,[1]; [13],77.4%
same,% control observed on leaves 19 DAYS after the application,[1]; Table 3,82.5%
same,% control observed on leaves 26 DAYS after the application,[1]; Table 3,77.4%
same,Var % (19/26 DAYS),[1]; Table 3,−6.2%
same,% control observed on leaves 26 DAYS after the application,[2]; [14],78.2%
same,% control observed on leaves 19 DAYS after the application,[2]; Table 5,83.8%
same,% control observed on leaves 26 DAYS after the application,[2]; Table 5,78.2%
same,Var % (19/26 DAYS),[2]; Table 5,−6.7%
same,% control observed on leaves 20 DAYS after the application,[3],64.3%
COC(=O)N(OC)c1ccccc1COc1ccn(-c2ccc(Cl)cc2)n1 [PYRACLOSTROBIN],% control observed on leaves 21 DAYS after the application,[4]; rate 75 gr (A.I.)/ha,70.7%
same,% control observed on leaves 21 DAYS after the application,[5]; rate 100 gr (A.I.)/ha,60.1%
same,% control observed on leaves 21 DAYS after the application,[9]; rate 75 gr (A.I.)/ha,66.7%
"O=C(NCCc1ncc(C(F)(F)F)cc1Cl)c1ccccc1C(F)(F)F [FLUOPYRAM, fluopyram]",% control observed on leaves 26 DAYS after the application,[1]; [13],75.3%
same,% control observed on leaves 19 DAYS after the application,[1]; Table 3,83.9%
same,% control observed on leaves 26 DAYS after the application,[1]; Table 3,75.3%
same,Var % (19/26 DAYS),[1]; Table 3,−10.3%
same,% control observed on leaves 26 DAYS after the application,[2]; [14],76.2%
same,% control observed on leaves 19 DAYS after the application,[2]; Table 5,85.1%
same,% control observed on leaves 26 DAYS after the application,[2]; Table 5,76.2%
same,Var % (19/26 DAYS),[2]; Table 5,−10.5%
same,"effect of FOLPET on the efficacy of the systemic product, treated area",[10],efficacy gains
same,"effect of FOLPET on the efficacy of the systemic product, untreated area",[10],not statistically significant
"Cc1cc(C2CC2)nc(Nc2ccccc2)n1 [CYPRODINIL, cyprodinil]",% control observed on leaves 26 DAYS after the application,[12],62.7%
C#CCOc1ccc(CCNC(=O)C(OCC#C)c2ccc(Cl)cc2)cc1OC (stereo not drawn) [MANDIPROPAMIDE],% control observed on leaves 14 DAYS after the application,[6]; rate 150 gr (A.I.)/ha,65.7%
same,% control observed on leaves 21 DAYS after the application,[7]; rate 150 gr (A.I.)/ha,62.5%
same,% control observed on leaves 21 DAYS after the application,[8]; rate 112.5 gr (A.I.)/ha,74.1%
Cc1cc(C2CC2)nc(Nc2ccccc2)n1 [CYPRODNIL],% control observed on leaves 21 DAYS after the application,[9]; rate 150 gr (A.I.)/ha,51.8%
CCC(C)(NC(=O)c1cc(Cl)c(C)c(Cl)c1)C(=O)CCl (stereo not drawn) [ZOXAMIDE],% control observed on leaves 14 DAYS after the application,[6]; rate 180 gr (A.I.)/ha,74.4%
same,% control observed on leaves 21 DAYS after the application,[7]; rate 180 gr (A.I.)/ha,62.9%
same,% control observed on leaves 21 DAYS after the application,[8]; rate 135.0 gr (A.I.)/ha,74.7%
CCNC(=O)NC(=O)/C(C#N)=N/OC [CYMOXANIL],% control observed on leaves 14 DAYS after the application,[6]; rate 150 gr (A.I.)/ha,68.5%
same,% control observed on leaves 21 DAYS after the application,[7]; rate 150 gr (A.I.)/ha,68.4%
same,% control observed on leaves 21 DAYS after the application,[8]; rate 126.0 gr (A.I.)/ha,73.6%
